Entries after “also recorded” stand apart in the source; their conditions may differ. Like-named read-outs stand apart in the source and are kept apart here.
Columns and labels:
[1] = test system: SARS-CoV-2 strain G614; assay: microbe, parasite or virus in culture; type: cell-based; conditions: for IC50: Severe acute respiratory syndrome coronavirus 2, 24 h, read-out: Anti-SARS-CoV-2 activity, spike immunostaining assay (IC50 ± SD)
[2] = in vitro; conditions: human, Caco-2
[3] = test system: SARS-CoV-2
[4] = test system: SARS-CoV-2; conditions: Vero E6 cells; ref ter Ellen et al., 2021; cited from earlier work
[5] = test system: SARS-CoV-2; conditions: primary human bronchial epithelial cells, air-liquid interface culture; ref ter Ellen et al., 2021; cited from earlier work
[6] = target: T1, SARS-CoV-2 main protease (Mpro) (Severe acute respiratory syndrome coronavirus 2, UniProt P0DTD1); type: biochemical
T1 construct: made in house

[7] = test system: SARS-CoV-2 strain G614; conditions: false positive in the assay; ref Bojkova et al., 2023; cited from earlier work
[8] = test system: SARS-CoV-2; conditions: ref Bojkova et al., 2023; cited from earlier work
[9] = test system: SARS-CoV-2 strain G614; type: cell-based; conditions: at 10 µM
[10] = test system: SARS-CoV; conditions: cited from earlier work
[11] = test system: SARS-CoV main protease (Mpro, 3CL protease); conditions: ref Wen et al., 2007; cited from earlier work

| SMILES | Selectivity index (CC50/IC50) [1] | IC50 [1] [µM] | CC50 [2] [µM] | also measured |
| --- | --- | --- | --- | --- |
| COc1ccc2c(c1)OC1c3ccc(O)cc3OCC21 (single isomer, unassigned; (-)) [Compound 2, (−)-medicarpin] | >3.0 | 33.4 ± 9.7 | > 100 | – |
| Oc1ccc2c(c1)OCC1c3cc4c(cc3OC21)OCO4 (single isomer, unassigned; (-)) [Compound 3, (−)-maackiain] | – | > 100 | > 100 | – |
| COc1cc2c(cc1O)C1COc3cc(O)ccc3C1O2 (single isomer, unassigned; (-)) [Compound 4, (−)-3,8-dihydroxy-9-methoxypterocarpan] | – | > 100 | > 100 | MN Analysis: Activity classification (predicted anti-SARS-CoV-2 activity of the compound) [3]: inactive |
| COc1cc(/C=C/c2ccc(O)cc2)cc(OC)c1 [Compound 1, (E)-pterostilbene] | >2.9 | 34.7 ± 1.6 | > 100 | Anti-SARS-CoV-2 activity [4]: has shown anti-SARS-CoV-2 activity; Anti-SARS-CoV-2 activity [5]: has shown anti-SARS-CoV-2 activity |
| COc1ccc2c(c1)O[C@H]1c3ccc(OC)cc3OC[C@@H]21 [Compound 5, (−)-homopterocarpin] | >5.8 | 17.2 ± 1.9 | > 100 | SARS-CoV-2 Mpro inhibition [6]: did not show any inhibitory activity; also recorded: no inhibitory activity; MN Analysis: Activity classification (predicted anti-SARS-CoV-2 activity of the compound) [3]: active |
| COc1ccc2c(c1)OC[C@H]1c3cc4c(cc3O[C@@H]21)OCO4 [Compound 6, (−)-pterocarpin] | – | > 100 | > 100 | MN Analysis: Activity classification (predicted anti-SARS-CoV-2 activity of the compound) [3]: active |
| COc1ccc2c(c1)OC[C@H]1c3cc(O)c(OC)cc3O[C@@H]21 [Compound 7, (−)-8-hydroxyhomopterocarpan] | – | > 100 | > 100 | – |
| COc1ccc(CCCc2ccc(O)c(OC)c2)c(OC)c1 [Compound 9, pterosantalin D] | – | > 100 | > 100 | – |
| COc1cc(O)c2c(=O)c(-c3ccc(O)cc3)coc2c1 [Compound 11, 7-O-methylgenistein] | >2.6 | 37.9 ± 5.4 | > 100 | – |
| COc1cc(O)c2c(=O)c(-c3ccc(O)c(OC)c3)coc2c1 [Compound 12, 7,3′-di-O-methylorobol] | – | > 100 | > 100 | – |
| COc1cc(O)c2c(=O)c(-c3ccc(O)c(O)c3)coc2c1 [Compound 13, santal] | >1.4 | 74.2 ± 15.4 | > 100 | – |
| COc1ccc(-c2coc3cc(O)cc(O)c3c2=O)c(OC)c1O [Compound 14, khrinone C] | – | > 100 | > 100 | MN Analysis: Activity classification (predicted anti-SARS-CoV-2 activity of the compound) [3]: inactive |
| COc1ccc2c(c1)oc(=O)c1c3ccc(OC)cc3oc21 [Compound 16, 3,9-di-O-methylcoumestrol] | – | > 100 | > 100 | – |
| COc1ccc([C@@H]2COc3cc(OC)ccc3C2)c(O)c1 [Compound 22, (−)-isosativan] | >2.5 | 40.8 ± 1.8 | > 100 | – |
| COc1ccc([C@@H]2COc3cc(OC)ccc3C2=O)cc1 [Compound 23, (+)-7,4′-di-O-methyldihydrodaidzein] | >1.9 | 53.3 ± 6.2 | > 100 | – |
| C[C@H](NC(=O)C(=O)Nc1ccccc1C(C)(C)C)C(=O)N[C@@H](CC(=O)O)C(=O)COc1c(F)c(F)cc(F)c1F [emricasan] | – | – | – | Effect on SARS-CoV-2-induced caspase 3/7 activity [7]: supressed SARS-CoV-2-induced caspase 3/7 activity; Effect on SARS-CoV-2 replication [8]: did not affect SARS-CoV-2 replication |
| CCC(CC)COC(=O)[C@H](C)N[P@](=O)(OC[C@H]1O[C@@](C#N)(c2ccc3c(N)ncnn23)[C@H](O)[C@@H]1O)Oc1ccccc1 [remdesivir, reference compound] | >58.8 | 0.17 ± 0.01 | > 10 | Anti-SARS-CoV-2 activity, Caspase assay [% inhibition] [9]: 93.4 (at 10 µM) % inhibition; Selectivity index CC50/IC50 [1]: >58.8 |
| O=C1OC[C@H](Cc2ccc3c(c2)OCO3)/C1=C\c1ccc2c(c1)OCO2 [savinin] | – | – | – | Anti-SARS-CoV activity EC50 [10]: low micromolar range; Inhibition of SARS-CoV main protease, mode [11]: competitive inhibition |

— paper PMC10280016 (Frontiers in Molecular Biosciences, 2023)
